# Test results from article PMC5298005 (Clinical Pharmacology in Drug Development, 2016).
# Read-outs that look alike come from different tables or passages of the source. Marks after values point to notes of the source that are not given here.
# How the values were obtained:
# [1] = type: in vivo, human (healthy subjects)
# [2] = Phase 1 drug-interaction study, prednisone with isavuconazole: pharmacokinetics
# [3] = Treatment-emergent adverse events, cyclosporine study; type: in vivo, human (healthy subjects); conditions: TEAE during isavuconazole‐only administration
# CYP3A4 = conditions: human liver microsomes expressing CYP3A4 in vitro; ref data on file; cited from earlier work
# [4] = Phase 1 drug-interaction study, sirolimus with isavuconazole: pharmacokinetics; type: in vivo, human (healthy subjects)
# [5] = Phase 1 drug-interaction study, tacrolimus with isavuconazole: pharmacokinetics; type: in vivo, human (healthy subjects)
# [6] = cited from earlier work
# [7] = both, human, plasma, oral, 200 mg
# [8] = isavuconazole + MMF vs isavuconazole alone
# [9] = isavuconazole + cyclosporine vs isavuconazole alone
# [10] = isavuconazole + sirolimus vs isavuconazole alone
# [11] = isavuconazole + tacrolimus vs isavuconazole alone
# [12] = MPAG after MMF 1 g single oral dose
# [13] = MMF + isavuconazole vs MMF alone
# [14] = MPA after MMF 1 g single oral dose
# [15] = both, human, in vivo, po, 20 mg
# [16] = prednisolone after prednisone 20 mg single oral dose
# [17] = prednisone + isavuconazole vs prednisone alone
# [18] = both, human, whole blood, po, 2 mg
# [19] = sirolimus 2 mg single oral dose
# [20] = both, human, whole blood, po, 5 mg
# [21] = tacrolimus 5 mg single oral dose
# [22] = tacrolimus + isavuconazole vs tacrolimus alone
smiles,measurement,setting,value
"C[C@@H](c1nc(-c2ccc(C#N)cc2)cs1)[C@](O)(Cn1cncn1)c1cc(F)ccc1F [Isavuconazole, isavuconazole]",AUCτ,"[1]; MMF study, isavuconazole 200 mg QD alone, plasma, n = 22, arithmetic mean (SD)",101.4 (37.6) μg·h/mL
same,Cmax,[1]; [7],6500 ng/mL
same,change of mean AUCτ of isavuconazole by coadministration with MMF,[1]; in vivo,unchanged
same,mean Cmax of isavuconazole increased by coadministration with MMF,[1]; in vivo,4%
same,"AUCτ, Geometric Least‐Squares Mean, % (90%CI)",[1]; [8],"101 (98, 103) %"
same,"Cmax, Geometric Least‐Squares Mean, % (90%CI)",[1]; [8],"104 (100, 107) %"
same,AUC,"[2]; both, human, in vivo, 200 mg",88200 ng·h/mL
same,Cmax,"[2]; both, human, in vivo, 200 mg",5600 ng/mL
same,Tmax,"[2]; both, human, in vivo, 200 mg",2 h
same,blood creatinine,"[3]; 1 subject, day 15, 0.9 mg/dL on day –1",1.4 mg/dL
same,blood creatinine,"[3]; second subject, by day 14, baseline 1.3 mg/dL",1.4 mg/dL
same,isavuconazole metabolized,CYP3A4,66.2%
same,AUC,"both, human, in vivo, 200 mg",108000 ng·h/mL
same,Cmax,"both, human, in vivo, 200 mg",5700 ng/mL
same,"AUCτ, Geometric Least‐Squares Mean, % (90%CI)",[9],"103 (100, 106) %"
same,"Cmax, Geometric Least‐Squares Mean, % (90%CI)",[9],"130 (121, 139) %"
same,AUC,[4]; [7],92000 ng·h/mL
same,Tmax,[4]; [7],2 h
same,mean AUCτ of isavuconazole higher in the presence of sirolimus,[4]; in vivo,11%
same,mean Cmax of isavuconazole higher in the presence of sirolimus,[4]; in vivo,4%
same,"AUCτ, Geometric Least‐Squares Mean, % (90%CI)",[4]; [10],"111 (109, 114) %"
same,"Cmax, Geometric Least‐Squares Mean, % (90%CI)",[4]; [10],"104 (100, 108) %"
same,AUC,[5]; [7],89800 ng·h/mL
same,Cmax,[5]; [7],4900 ng/mL
same,mean AUCτ of isavuconazole higher in the presence of tacrolimus,[5]; in vivo,12%
same,mean Cmax of isavuconazole higher in the presence of tacrolimus,[5]; in vivo,26%
same,"AUCτ, Geometric Least‐Squares Mean, % (90%CI)",[5]; [11],"112 (110, 115) %"
same,"Cmax, Geometric Least‐Squares Mean, % (90%CI)",[5]; [11],"126 (118, 134) %"
"CCC(C)n1ncn(-c2ccc(N3CCN(c4ccc(OCC5COC(Cn6cncn6)(c6ccc(Cl)cc6Cl)O5)cc4)CC3)cc2)c1=O (stereo not drawn) [Itraconazole, itraconazole]",Fold increase in trough concentrations of cyclosporine,[6]; cyclosporine coadministered with itraconazole,"↑ 2.7 ^b ^,13 fold"
same,Fold increase in trough concentrations of tacrolimus,[6]; tacrolimus coadministered with itraconazole,"↑ 5.6 ^b ^,13 fold"
"COc1c(C)c2c(c(O[C@@H]3O[C@H](C(=O)O)[C@@H](O)[C@H](O)[C@H]3O)c1C/C=C(\C)CCC(=O)O)C(=O)OC2 [MPAG, mycophenolic acid phenyl glucuronide]",AUC0–∞ lower in the presence vs absence of isavuconazole,[1]; [12],24%
same,AUClast lower in the presence vs absence of isavuconazole,[1]; [12],27%
same,Cmax lower in the presence vs absence of isavuconazole,[1]; [12],32%
"COc1c(C)c2c(c(O)c1C/C=C(\C)CCC(=O)O)C(=O)OC2 [Mycophenolic Acid, mycophenolic acid]",CL/F,"[1]; MMF 1 g single oral dose alone, plasma, n = 24, arithmetic mean (SD)",11.5 (3.4) L/h
same,"AUC0–∞, Geometric Least‐Squares Mean Ratio, % (90%CI)",[1]; [13],"135 (127, 145) %"
same,"AUClast, Geometric Least‐Squares Mean Ratio, % (90%CI)",[1]; [13],"132 (124, 141) %"
same,"Cmax, Geometric Least‐Squares Mean Ratio, % (90%CI)",[1]; [13],"89 (76, 103) %"
same,Cmax lower in the presence vs absence of isavuconazole,[1]; [14],11%
same,Mean AUC0–∞ higher in the presence vs absence of isavuconazole,[1]; [14],35%
same,Mean AUClast higher in the presence vs absence of isavuconazole,[1]; [14],32%
same,Tmax,"[1]; both, human, plasma, po, 1 g",0.5 h
same,half-life,"[1]; both, human, plasma, po, 1 g",12.6 h
"CC[C@@H]([C@H](C)O)n1ncn(-c2ccc(N3CCN(c4ccc(OC[C@@H]5CO[C@@](Cn6cncn6)(c6ccc(F)cc6F)C5)cc4)CC3)cc2)c1=O [Posaconazole, posaconazole]",Fold increase in area under the plasma concentration‐time curve of sirolimus,[6]; sirolimus coadministered with posaconazole,"↑ 7.9 ^a ^,14 fold"
same,Fold increase in area under the plasma concentration‐time curve of tacrolimus,[6]; tacrolimus coadministered with posaconazole,"↑ 3.6 ^a ^,14 fold"
"C[C@]12C=CC(=O)C=C1CC[C@@H]1[C@@H]2[C@@H](O)C[C@@]2(C)[C@H]1CC[C@]2(O)C(=O)CO [Prednisolone, prednisolone]",AUC(0-inf),[2]; [15],1650 ng·h/mL
same,AUC(0-t),[2]; [15],1640 ng·h/mL
same,Cmax,[2]; [15],295 ng/mL
same,Tmax,[2]; [15],1.5 h
same,half-life,[2]; [15],2.9 h
same,Cmax lower in the presence vs absence of isavuconazole,[2]; [16],4%
same,Mean AUC0–∞ higher in the presence vs absence of isavuconazole,[2]; [16],8%
same,Mean AUClast higher in the presence vs absence of isavuconazole,[2]; [16],8%
same,"AUC0–∞, Geometric Least‐Squares Mean Ratio, % (90%CI)",[2]; [17],"108 (102, 114) %"
same,"AUClast, Geometric Least‐Squares Mean Ratio, % (90%CI)",[2]; [17],"108 (102, 114) %"
same,"Cmax, Geometric Least‐Squares Mean Ratio, % (90%CI)",[2]; [17],"96 (90, 102) %"
"CO[C@H]1C[C@@H]2CC[C@@H](C)[C@@](O)(O2)C(=O)C(=O)N2CCCC[C@H]2C(=O)O[C@H]([C@H](C)C[C@@H]2CC[C@@H](O)[C@H](OC)C2)CC(=O)[C@H](C)/C=C(\C)[C@@H](O)[C@@H](OC)C(=O)[C@H](C)C[C@H](C)/C=C/C=C/C=C/1C [Sirolimus, sirolimus]",AUC(0-inf),[4]; [18],196 ng·h/mL
same,AUC(0-t),[4]; [18],152 ng·h/mL
same,Cmax,[4]; [18],5.1 ng/mL
same,half-life,[4]; [18],74.8 h
same,Mean AUC0–∞ higher in the presence vs absence of isavuconazole,[4]; [19],84%
same,Mean AUClast higher in the presence vs absence of isavuconazole,[4]; [19],108%
same,Mean Cmax higher in the presence vs absence of isavuconazole,[4]; [19],65%
"C=CC[C@@H]1/C=C(\C)C[C@H](C)C[C@H](OC)[C@H]2O[C@@](O)(C(=O)C(=O)N3CCCC[C@H]3C(=O)O[C@H](/C(C)=C/[C@@H]3CC[C@@H](O)[C@H](OC)C3)[C@H](C)[C@@H](O)CC1=O)[C@H](C)C[C@@H]2OC [Tacrolimus, tacrolimus]",AUC(0-inf),[5]; [20],313 ng·h/mL
same,AUC(0-t),[5]; [20],304 ng·h/mL
same,Cmax,[5]; [20],26.7 ng/mL
same,Mean AUC0–∞ higher in the presence vs absence of isavuconazole,[5]; [21],125%
same,Mean AUClast higher in the presence vs absence of isavuconazole,[5]; [21],127%
same,Mean Cmax higher in the presence vs absence of isavuconazole,[5]; [21],42%
same,"AUC0–∞, Geometric Least‐Squares Mean Ratio, % (90%CI)",[5]; [22],"225 (191, 266) %"
same,"AUClast, Geometric Least‐Squares Mean Ratio, % (90%CI)",[5]; [22],"227 (192, 268) %"
same,"Cmax, Geometric Least‐Squares Mean Ratio, % (90%CI)",[5]; [22],"142 (122, 164) %"
"C[C@@H](c1ncncc1F)[C@](O)(Cn1cncn1)c1ccc(F)cc1F [Voriconazole, voriconazole]",Fold increase in area under the plasma concentration‐time curve of cyclosporine,[6]; cyclosporine coadministered with voriconazole,"↑ 1.7 ^a ^,7 fold"
same,Fold increase in area under the plasma concentration‐time curve of sirolimus,[6]; sirolimus coadministered with voriconazole,"↑ 11 ^a ^,7 fold"
same,Fold increase in area under the plasma concentration‐time curve of tacrolimus,[6]; tacrolimus coadministered with voriconazole,"↑ 3 ^a ^,7 fold"
same,effect of coadministration on MPA AUC,"[6]; voriconazole coadministration, ref VFEND package insert",no significant effect
